The values that follow come from article PMC3679788, “Factors affecting antiretroviral pharmacokinetics in HIV-infected women with virologic suppression on combination antiretroviral therapy: a cross-sectional study” (BMC Infectious Diseases, 2013).

Like-named read-outs stand apart in the source and are kept apart here.

For data set [1] the following is noted: in vivo; cited from earlier work.
Data set [2] in a line: Plasma Cmin and Cmax of PI/NNRTI in HIV-positive women on cART (LC-MS/MS). The conditions noted are these: for Cmax at 2 h: female, human, oral, 400 mg, 2 hours post-dose. It is filed as in vivo, human. The method, then:
Patients were asked to fast from midnight of the previous night. One hour before their scheduled morning dose the pre-dose blood collection was drawn (Cmin t) (alternative arrangements were made if the patient took their drugs in the evening). […] Concentrations of the PIs and the NNRTIs in plasma were measured simultaneously by sensitive and selective, validated high-performance liquid chromatography coupled to tandem mass-spectroscopy (LC-MS/MS). All samples were analyzed at the pharmacokinetic laboratory at the Ottawa Hospital Research Institute in Ottawa, Canada. The PK endpoints for each patient were determined by taking the median of the three weekly values for the Cmin and Cmax. The rationale for measuring drug levels at three separate time points was that there is potentially intra-individual variability in drug levels, especially for PIs. Using the median value for the endpoints eliminated outliers. The three drug level measurements allowed for the calculation of intra-patient variability. […] Next, for each subject the ratio of their median Cmin and Cmax for their main PI or NNRTI to this published drug level was calculated and used as the primary outcome as previously reported by Burger et al. […] Inter-patient variability of Cmin and Cmax for each antiretroviral drug was assessed by calculating the coefficient of variation (CV) using each individual’s median Cmin and Cmax. […] These values are summarized using median and IQR of the individual CVs. […] Finally, linear regression models were fit to assess correlates of the square root-transformed Cmin and Cmax ratios. […] The regression models included indicator variables to account for the different antiretroviral medications and each potential correlate was included separately in an adjusted model. Statistical analyses were performed using SAS Version 9.2 (SAS Institute, Cary, North Carolina, USA).

For data set [3] the following is noted: historical HIV population, atazanavir 400 mg QD; cited from earlier work.
The mark [4] stands for this setting: HIV-positive women, all doses of the drug pooled.
The mark [5] stands for this setting: compared among the antiretrovirals.

Take `COC(=O)N[C@H](C(=O)N[C@@H](Cc1ccccc1)[C@@H](O)CN(Cc1ccc(-c2ccccn2)cc1)NC(=O)[C@@H](NC(=O)OC)C(C)(C)C)C(C)(C)C` [Atazanavir, atazanavir]: the “increase in AUC in women” value in data set [1] is “approximately 20%”. In data set [2] (HIV-positive women, 3 weekly visits, 400 QD), the “Cmin Intra-patient CV median (IQR)” value is reported as 57.4 (40.5-86.7). For the same compound, in data set [2] (HIV-positive women, 400 QD), the “Cmax median ratio to historical population mean (IQR)” value is listed as 0.59 (0.31-0.94), the “Cmax n (%) >1.5 Historical pop mean (percent of participants)” value is 0 (0.0%), the “Cmin median ratio to historical population mean (IQR)” value was 0.78 (0.35-1.37) and the “Cmin n (%) >1.5 historical pop Mean (percent of participants)” value was 2 (22.2%). Besides, in data set [2] (setting [4]), the “Cmax median ratio to historical population mean (IQR)” value is 0.65 (0.44-0.87), the “Cmax n (%) >1.5 Historical pop mean (percent of participants)” value was 0 (0.0%), the “Cmin median ratio to historical population mean (IQR)” value is 0.95 (0.53-1.42) and the “Cmin n (%) >1.5 historical pop Mean (percent of participants)” value is reported as 6 (22.2%). In data set [2] (HIV-positive women, from individual median Cmax, 400 QD), the “Cmax Inter-patient CV” value is recorded as 57.3%. Moreover, the “Cmin Inter-patient CV” value in data set [2] (HIV-positive women, from individual median Cmin, 400 QD) was 78.0%. Besides, the “Cmin Study participants median (IQR)” value in data set [2] (HIV-positive women, plasma, pre-dose, 400 mg QD, in ng/mL) is on record as 214 (95–373). In addition, the “Cmin Mean (SD)” value in data set [2] (HIV-positive women, plasma, pre-dose, 400 QD, in ng/mL) was 250.4 (195.4). Besides, in data set [2] (setting [5]), the “inter-patient variability, in words” value is “greatest observed inter-patient variability”; the “ratios of both Cmin and Cmax versus historical reference values, in words” value was “lowest ratios”. Moreover, the Cmax (in general, the peak of the concentration-time curve) at 2 h in data set [2] (plasma, HIV-positive women, plasma, 400 mg QD, read-out: Cmax Study participants median (IQR)) is 1870 ng/mL. The Cmax at 2 h in data set [2] (plasma, HIV-positive women, plasma, 400 QD, read-out: Cmax Mean (SD)) stood at 2000 ng/mL. Further, the “Inter- and intra-patient variability, in words” value in data set [2] (particularly when not boosted with ritonavir) was “high”. The Cmax Population mean in data set [3] is 3150 ng/mL.
